Experimental data reported in patent US10906881B2, “Inhibitors of arginine gingipain” (priority 2015, dated 2021).
Entries after “also recorded” stand apart in the source; their conditions may differ.

What was measured:
RgpB = biological target: T1, RgpB (Porphyromonas gingivalis, UniProt P95493); experiment: RgpB fluorogenic inhibition assay; format: biochemical
T1 construct: 0.02 nM RgpB, isolated from culture of Porphyromonas gingivalis; made in house; host or cells: Porphyromonas gingivalis culture (native enzyme purified from the bacterium, not recombinant)
Method: The capacities of compounds of the present invention to inhibit the activity of RgpB were measured in a fluorogenic assay similar to those described in Barret Biochemical Journal. 1980, 187(3), 909. The specific assay conditions were as follows. Buffer: pH=7.5, 100 mM Tris-HCl, 75 mM NaCl, 2.5 mM CaCl2, 10 mM cysteine, 1% DMSO after all additions. Protein: 0.02 nM RgpB, isolated from culture of Porphyromonas gingivalis, as described in Pike et al. J Biol. Chem. 1994, 269(1), 406, and Potempa and Nguyen. Current Protocols in Protein Scienc. 2007, 21.20.1-21.20.27. Fluorogenic substrate: 10 uM Boc-Phe-Ser-Arg-MCA. Time=90 minutes. Temperature=37° C. Each compound: 10 concentrations, starting at either 100 uM or 100 nM, with lower concentrations generated by serial 3-fold dilutions. By testing a range of concentrations for each compound, the concentration required to inhibit the activity of RgpB by 50% (the “IC50”) was determined. Under the described assay conditions, signal-to-noise was excellent, and Z factor was greater than 0.7.
(§1) The inhibitory of activity of compounds described herein was tested against Kgp, RgpB, RgpA, and trypsin.

trypsin = biological target: T2, trypsin (Bos taurus, UniProt P00760); experiment: Trypsin inhibition assay; format: biochemical
T2 construct: gene PRSS1
T2 sequence (P00760 24-246): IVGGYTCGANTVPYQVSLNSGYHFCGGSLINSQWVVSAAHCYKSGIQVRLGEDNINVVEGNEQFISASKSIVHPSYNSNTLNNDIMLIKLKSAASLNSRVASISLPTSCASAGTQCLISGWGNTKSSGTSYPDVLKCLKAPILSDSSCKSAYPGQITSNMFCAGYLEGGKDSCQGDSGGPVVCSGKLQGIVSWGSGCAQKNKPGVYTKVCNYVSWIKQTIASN
Method: as §1

Kgp = Kgp (Porphyromonas gingivalis, UniProt B2RLK2); experiment: Kgp inhibition assay; format: biochemical
Method: as §1

RgpA = RgpA (Porphyromonas gingivalis, UniProt B2RM93); experiment: RgpA inhibition assay; format: biochemical
Method: as §1

P gingivalis W83 = experiment: P. gingivalis infection of brain tissue in vivo (qPCR); set-up: species or system BalbC mice; details: BID subcutaneously in 25% Pluronic F127, day 35-70
Description: BalbC mice were given a tooth ligature and infected by oral lavage with P gingivalis W83 (1×10^9 CFU in 2% carboxymethyl cellulose) or vehicle for 6 weeks. Compound 13 was delivered BID subcutaneously in 25% Pluronic F127 on day 35-70. On day 70, mice were sacrificed and perfused with PBS prior to dissection. DNA was isolated from one quarter of the brain using a DNEasy Blood & Tissue Kit (Qiagen). Forward and reverse primers for RgpB were used for qPCR to quantify P. gingivalis DNA in the brain tissue. The forward primer sequence was 5′-[…]-3′ (SEQ ID NO: 1). The reverse primer sequence was 5′-[…]-3′ (SEQ ID NO: 2). The probe sequence was 5′-6-FAM-[…]-TAMRA-3′ (SEQ ID NO: 3).

[1] = tested on: SH-SY5Y neuroblastoma cells; experiment: Rescue of neuroblastoma cells from P. gingivalis toxicity; format: cell-based; details: 4 μg/mL, P. gingivalis ATCC BAA-308, MOI 1:1000, 48 hours
Method: SH-SY5Y neuroblastoma cells were cultured based on established methods [Saberi S., et al. Cell Mol Neurobiol 2013. 33: 5 747-751]. The strain P. gingivalis ATCC BAA-308 was streaked onto a brain heart infusion agar (BHA), and the plate was incubated for 72 h at 37° C. in an anaerobic workstation with an atmosphere of 80% N2, 10% CO2, and 10% H2. The plates were removed from the anaerobic work station for testing and processed under ambient atmosphere. The bacteria were harvested and suspended in complete medium-Pen/Strep (without Pen/Strep). The turbidity of the suspension was adjusted to 0.5, as measured using a MicroScan® Turbidity Meter (Siemens), which is equivalent to ˜6×10^8 cfu/mL (for MOI 1:1000) and incubated with the cells for 48 hours. 4 μg/mL of Compound 13 was added to the media at the time of introduction of the bacteria. Results were recorded using a digital microscope camera (FIG. 5). […] Other compounds of the invention are tested as described for Compound 13.

[2] = tested on: gingipain-containing P. gingivalis supernatant; experiment: Degradation of human collagen by P. gingivalis supernatant (SDS-PAGE); format: biochemical, Porphyromonas gingivalis; details: 50 μM inhibitor, 1h, pH 7.5
Method: P. gingivalis was grown to exponential phase (OD 600 nm=0.6) in a Coy's anaerobic chamber under 5% hydrogen, 10% carbon dioxide, and […]. The bacteria were centrifuged at 5000×g for 10 min at 4° C., and then the supernatant was collected. The supernatant was concentrated by centrifugation at 5000×g for 60 min at 4° C. min using Corning Spin-X UF-20 concentrator tubes and then at 17,000×g for 30 min using Corning Spin-X UF500 concentrator tubes. 10 μg of Collagen type I was incubated with 0.6 μg of P. gingivalis culture supernatant for 1h in the absence or presence of 50 μM Rgp inhibitor (Compound 13, Table 1), 50 μM Kgp inhibitor ((S)—N-(6-guanidino-2-oxo-1-(2,3,5,6-tetrafluorophenoxy)hexan-3-yl)cyclopentanecarboxamide; described in U.S. Pat. Appl. Pub. No. 2016/0096830), or both. Reaction mixtures contained 5 mM cysteine, 20 mM sodium phosphate buffer, pH 7.5. After incubation, the reaction was terminated by the addition of protease inhibitor cocktail (Sigma). The samples were then analyzed by SDS-polyacrylamide gel electrophoresis. Following separation, the gels were stained with Biosafe Coomassie (Bio-Rad).

[3] = Plasma pharmacokinetics after subcutaneous delivery; format: in vivo; details: 10 mg/kg; for AUC(0-t): male, CD1, mouse, plasma, sc, mice
Method: Compound 13 was dissolved at a concentration of 1 mg/mL in water containing carboxymethylcellulose (2% w/w) or Pluronic F127 (25% w/w). Solutions were kept on ice, and 10 mg/kg of each solution was administered to 3 male CD1 mice. Plasma was collected at 7 time points. Concentrations in plasma were determined by HPLC with tandem mass (MS/MS) detection.
Plasma samples were precipitated with a mixture containing 80% acetonitrile. Samples were further diluted with water containing 0.1% formic acid. Chromatographic separation was performed on a reversed phase column (2.1×50 mm, particle size: […], Xbridge C8, Waters, USA). Components were separated using a linear gradient of acetonitrile containing 0.1% formic acid in ultrapurified H2O containing 0.1% formic acid (flow rate 0.2 mL/min).
MS analyses were performed using an API 5500 QTRAP system having an API 5500 QTRAP detector and a Turbo Ion Spray interface (both from Applied Biosystems, USA). The acquisitions were performed in positive ionization mode, with optimized settings for the analytes. The instrument was operated in multiple-reaction-monitoring (MRM) mode, the following transition was used to quantify compound 13; 433.4->112.1. Data were calibrated and quantified using the Analyst™ data system (Applied Biosystems) using the response of the analyte versus the concentration.

[4] = oral RTV 15 minutes prior to Kyt-36; from U.S. patent application Ser. No. 14/875,416; cited from earlier work

| Compound | IC50 (RgpB) [nM] | IC50 (trypsin) [nM] | further results |
| --- | --- | --- | --- |
| CC[C@H](NC(C)=O)C(=O)NC(CCCNC(=N)N)C(=O)c1nc2ccccc2s1 (single isomer, unassigned) [Compound 12] | < 2 |  |  |
| CC[C@H](NC(C)=O)C(=O)NC(CCCNC(=N)N)C(=O)c1nc2ccccc2s1 (single isomer, unassigned) [Compound 11] |  | > 40 |  |
| CCCC(=O)N[C@@H](CCCNC(=N)N)C(=O)c1nc2ccccc2s1 [Compound 2, N-[(1S)-1-(1,3-benzothiazole-2-carbonyl)-4-guanidino-butyl]butanamide] | < 2 | > 1000 |  |
| N=C(N)NCCC[C@H](NC(=O)C1CCCC1)C(=O)c1nc2ccccc2s1 [Compound 1, N-[(1S)-1-(1,3-benzothiazole-2-carbonyl)-4-guanidino-butyl]cyclopentanecarboxamide] | < 1 |  |  |
| N=C(N)NCCC[C@H](NC(=O)c1ccccc1C(F)(F)F)C(=O)c1nc2ccccc2s1 [Compound 4, N-[(1S)-1-(1,3-benzothiazole-2-carbonyl)-4-guanidino-butyl]-2-(trifluoromethyl)benzamide] |  | > 350 |  |
| [N-]=[N+]=Nc1cccc(C(=O)N[C@@H](CCCNC(=N)N)C(=O)COc2c(F)c(F)cc(F)c2F)c1 [Compound 14, 3-azido-N-[(1S)-4-guanidino-1-[2-(2,3,5,6-tetrafluorophenoxy)acetyl]butyl]benzamide] |  |  | IC50 (Kgp): > 450 nM; IC50 (RgpA): < 0.5 nM |
| N=C(N)NCCC[C@H](NC(=O)[C@H]1CCNC1)C(=O)c1nc2ccccc2s1 [Compound 8, (3S)—N-[1-(1,3-benzothiazole-2-carbonyl)-4-guanidino-butyl]pyrrolidine-3-carboxamide] |  | > 1000 |  |
| N=C(N)NCCC[C@H](NC(=O)CCCN)C(=O)c1nc2ccccc2s1 [Compound 5, 4-amino-N-[(1S)-1-(1,3-benzothiazole-2-carbonyl)-4-guanidino-butyl]butanamide] |  | > 1000 |  |
| N=C(N)NCCC[C@H](NC(=O)c1ccccc1)C(=O)c1nc2ccccc2s1 [Compound 3, N-[(1S)-1-(1,3-benzothiazole-2-carbonyl)-4-guanidino-butyl]benzamide] | < 2 | > 1000 |  |
| N=C(N)NCCCC(NC(=O)[C@H]1CC[C@@H](N)C1)C(=O)c1nc2ccccc2s1 (single isomer, unassigned) [Compound 10] |  | > 1000 |  |
| N=C(N)NCCC[C@@H](NC(=O)[C@H]1CCCNC1)C(=O)c1nc2ccccc2s1 [Compound 7, (3S)—N-[(1R)-1-(1,3-benzothiazole-2-carbonyl)-4-guanidino-butyl]piperidine-3-carboxamide] |  | > 1000 |  |
| N=C(N)NCCC[C@H](NC(=O)C1CCCC1)C(=O)COc1c(F)c(F)cc(F)c1F [Compound 13, N-[(1S)-4-guanidino-1-[2-(2,3,5,6-tetrafluorophenoxy)acetyl]butyl]cyclopentanecarboxamide] | < 1 |  | P. gingivalis DNA in brain tissue by qPCR (P gingivalis W83): demonstrates efficacy; Rescue of cells from P. gingivalis toxicity [1]: can rescue; also recorded: prevented the toxicity; Degradation of collagen type I by P. gingivalis culture supernatant [2]: prevent degradation of collagen; Plasma concentration over time ([3]; Pluronic F127 versus carboxymethylcellulose): increased concentration; AUC(0-t) ([3]; in 2% carboxymethylcellulose): 687 ng·h/mL; AUC(0-t) ([3]; in 25% Pluronic F127): 2120 ng·h/mL; IC50 (Kgp): > 150 nM; IC50 (RgpA): < 0.5 nM |
| N=C(N)NCCCC(NC(=O)[C@H]1CC[C@@H](N)C1)C(=O)c1nc2ccccc2s1 (single isomer, unassigned) [Compound 9] | < 2 |  |  |
| CN(NC(=O)CC[C@H](NC(=O)OCc1ccccc1)C(=O)N[C@@H](CCCCN)C(=O)C(=O)NCc1ccccc1)c1ccccc1 [Kyt-36] |  |  | Half-life [4]: increases the half-life |
| N=C(N)NCCC[C@H](NC(=O)[C@H]1CCCNC1)C(=O)c1nc2ccccc2s1 [Compound 6, (3S)—N-[(1S)-1-(1,3-benzothiazole-2-carbonyl)-4-guanidino-butyl]piperidine-3-carboxamide] |  | > 1000 |  |
